This note sets out measurements from patent US20260139005A1 (priority 2022, published 2026).

≈ marks a conversion by molar mass, not a printed value. Where two headings read alike, the source gives them in different places. Where a SMILES comes first, the peptide text is derived from it.

This assay has as its system Fusarium graminearum.

Consider `CC(C)[C@H](NC(=O)[C@H](CS)NC(=O)[C@H](CCCCN)NC(=O)[C@H](CS)NC(=O)[C@H](C)NC(=O)[C@H](C)NC(=O)[C@H](C)NC(=O)[C@H](C)NC(=O)[C@H](CS)NC(=O)[C@H](CCCCN)NC(=O)[C@@H]1CCCN1C(=O)[C@@H](NC(=O)[C@H](CCCCN)NC(=O)[C@@H]1CCCN1C(=O)[C@H](CCCCN)NC(=O)[C@H](CCCNC(=N)N)NC(=O)[C@H](CS)NC(=O)[C@H](C)NC(=O)[C@H](Cc1ccccc1)NC(=O)[C@H](CCCCN)NC(=O)[C@H](CCCCN)NC(=O)[C@H](CS)NC(=O)[C@H](CC(=O)O)NC(=O)[C@H](CCCCN)NC(=O)[C@H](CC(=O)O)NC(=O)[C@H](CO)NC(=O)[C@H](CCC(N)=O)NC(=O)[C@H](CS)NC(=O)[C@@H]1CCCN1C(=O)[C@H](CCCCN)NC(=O)[C@@H](N)[C@@H](C)O)C(C)C)C(=O)N[C@@H](CCCNC(=N)N)C(=O)O` [NCR13_AlaV5] (H-TKPCQSDKDCKKFACRKPKVPKCAAAACKCVR-OH; N-terminus and C-terminus assumed), for which, where the note is “48 h”, the “MIC (μM) Fusarium graminearum” value was determined as 6 µM (≈ 21.1 µg/mL).

For “TKPCQSDKDCAAAACRKPKVPKCINGFCKCVR [NCR13_AlaV2]”, the “MIC (μM) Fusarium graminearum” value is listed as “Inactive”.

For `CC[C@H](C)[C@H](NC(=O)[C@H](CS)NC(=O)[C@H](C)NC(=O)[C@H](C)NC(=O)[C@H](C)NC(=O)[C@H](CCCCN)NC(=O)[C@@H]1CCCN1C(=O)[C@H](CCCCN)NC(=O)[C@H](CCCNC(=N)N)NC(=O)[C@H](CS)NC(=O)[C@H](C)NC(=O)[C@H](Cc1ccccc1)NC(=O)[C@H](CCCCN)NC(=O)[C@H](CCCCN)NC(=O)[C@H](CS)NC(=O)[C@H](CC(=O)O)NC(=O)[C@H](CCCCN)NC(=O)[C@H](CC(=O)O)NC(=O)[C@H](CO)NC(=O)[C@H](CCC(N)=O)NC(=O)[C@H](CS)NC(=O)[C@@H]1CCCN1C(=O)[C@H](CCCCN)NC(=O)[C@@H](N)[C@@H](C)O)C(=O)N[C@@H](CC(N)=O)C(=O)NCC(=O)N[C@@H](Cc1ccccc1)C(=O)N[C@@H](CS)C(=O)N[C@@H](CCCCN)C(=O)N[C@@H](CS)C(=O)N[C@H](C(=O)N[C@@H](CCCNC(=N)N)C(=O)O)C(C)C` [NCR13_AlaV4] (H-TKPCQSDKDCKKFACRKPKAAACINGFCKCVR-OH; N-terminus and C-terminus assumed), under “48 h”, the “MIC (μM) Fusarium graminearum” value was 12 µM (≈ 42.6 µg/mL).

For “TKPCQSDKDCKKFACAAAAVPKCINGFCKCVR [NCR13_AlaV3]”, the “MIC (μM) Fusarium graminearum” value was “Inactive”.

As to `CC[C@H](C)[C@H](NC(=O)[C@H](CS)NC(=O)[C@H](CCCCN)NC(=O)[C@@H]1CCCN1C(=O)[C@@H](NC(=O)[C@H](CCCCN)NC(=O)[C@@H]1CCCN1C(=O)[C@H](CCCCN)NC(=O)[C@H](CCCNC(=N)N)NC(=O)[C@H](CS)NC(=O)[C@H](C)NC(=O)[C@H](Cc1ccccc1)NC(=O)[C@H](CCCCN)NC(=O)[C@H](CCCCN)NC(=O)[C@H](CS)NC(=O)[C@H](CC(=O)O)NC(=O)[C@H](CCCCN)NC(=O)[C@H](CC(=O)O)NC(=O)[C@H](CO)NC(=O)[C@H](CCC(N)=O)NC(=O)[C@H](CS)NC(=O)[C@@H]1CCCN1C(=O)[C@H](CCCCN)NC(=O)[C@@H](N)[C@@H](C)O)C(C)C)C(=O)N[C@@H](CC(N)=O)C(=O)NCC(=O)N[C@@H](Cc1ccccc1)C(=O)N[C@@H](CS)C(=O)N[C@@H](CCCCN)C(=O)N[C@@H](CS)C(=O)N[C@H](C(=O)N[C@@H](CCCNC(=N)N)C(=O)O)C(C)C` [NCR13, reference compound] (H-TKPCQSDKDCKKFACRKPKVPKCINGFCKCVR-OH; N-terminus and C-terminus assumed), the “MIC (μM) Fusarium graminearum” value (48 h) stood at 6 µM (≈ 22 µg/mL).

As to `CC[C@H](C)[C@H](NC(=O)[C@H](CS)NC(=O)[C@H](CCCCN)NC(=O)[C@@H]1CCCN1C(=O)[C@@H](NC(=O)[C@H](CCCCN)NC(=O)[C@@H]1CCCN1C(=O)[C@H](CCCCN)NC(=O)[C@H](CCCNC(=N)N)NC(=O)[C@H](CS)NC(=O)[C@H](C)NC(=O)[C@H](Cc1ccccc1)NC(=O)[C@H](CCCCN)NC(=O)[C@H](CCCCN)NC(=O)[C@H](CS)NC(=O)[C@H](C)NC(=O)[C@H](C)NC(=O)[C@H](C)NC(=O)[C@H](C)NC(=O)[C@H](C)NC(=O)[C@H](CS)NC(=O)[C@@H]1CCCN1C(=O)[C@H](CCCCN)NC(=O)[C@@H](N)[C@@H](C)O)C(C)C)C(=O)N[C@@H](CC(N)=O)C(=O)NCC(=O)N[C@@H](Cc1ccccc1)C(=O)N[C@@H](CS)C(=O)N[C@@H](CCCCN)C(=O)N[C@@H](CS)C(=O)N[C@H](C(=O)N[C@@H](CCCNC(=N)N)C(=O)O)C(C)C` [NCR13_AlaV1] (H-TKPCAAAAACKKFACRKPKVPKCINGFCKCVR-OH; N-terminus and C-terminus assumed), the “MIC (μM) Fusarium graminearum” value (48 h) was 6 µM (≈ 20.7 µg/mL).
